Assays:
CAKI-1 = assay: Cytotoxicity against human CAKI-1 cells incubated for 48 hrs by MTT assay; assay type: functional, cell-based; conditions: CAKI-1, 48 h
[1] = molecular target: Vascular endothelial growth factor receptor 2 (Homo sapiens, UniProt P35968); assay: Inhibition of VEGFR2 (unknown origin) by Kinase-Glo max reagent based assay
A498 [2] = assay: Cytotoxicity against human A498 cells incubated for 48 hrs by MTT assay; assay type: functional, cell-based; conditions: A498, 48 h
A498 [3] = assay: Antiproliferative activity against human A498 cells; assay type: functional, cell-based
786-0 = assay: Antiproliferative activity against human 786-0 cells; assay type: functional, cell-based
ACHN = assay: Induction of TRAIL induced apoptosis in human ACHN cells assessed as reduction in cFLIP level; assay type: functional, cell-based

Chain of Vascular endothelial growth factor receptor 2 (P35968 whole entry): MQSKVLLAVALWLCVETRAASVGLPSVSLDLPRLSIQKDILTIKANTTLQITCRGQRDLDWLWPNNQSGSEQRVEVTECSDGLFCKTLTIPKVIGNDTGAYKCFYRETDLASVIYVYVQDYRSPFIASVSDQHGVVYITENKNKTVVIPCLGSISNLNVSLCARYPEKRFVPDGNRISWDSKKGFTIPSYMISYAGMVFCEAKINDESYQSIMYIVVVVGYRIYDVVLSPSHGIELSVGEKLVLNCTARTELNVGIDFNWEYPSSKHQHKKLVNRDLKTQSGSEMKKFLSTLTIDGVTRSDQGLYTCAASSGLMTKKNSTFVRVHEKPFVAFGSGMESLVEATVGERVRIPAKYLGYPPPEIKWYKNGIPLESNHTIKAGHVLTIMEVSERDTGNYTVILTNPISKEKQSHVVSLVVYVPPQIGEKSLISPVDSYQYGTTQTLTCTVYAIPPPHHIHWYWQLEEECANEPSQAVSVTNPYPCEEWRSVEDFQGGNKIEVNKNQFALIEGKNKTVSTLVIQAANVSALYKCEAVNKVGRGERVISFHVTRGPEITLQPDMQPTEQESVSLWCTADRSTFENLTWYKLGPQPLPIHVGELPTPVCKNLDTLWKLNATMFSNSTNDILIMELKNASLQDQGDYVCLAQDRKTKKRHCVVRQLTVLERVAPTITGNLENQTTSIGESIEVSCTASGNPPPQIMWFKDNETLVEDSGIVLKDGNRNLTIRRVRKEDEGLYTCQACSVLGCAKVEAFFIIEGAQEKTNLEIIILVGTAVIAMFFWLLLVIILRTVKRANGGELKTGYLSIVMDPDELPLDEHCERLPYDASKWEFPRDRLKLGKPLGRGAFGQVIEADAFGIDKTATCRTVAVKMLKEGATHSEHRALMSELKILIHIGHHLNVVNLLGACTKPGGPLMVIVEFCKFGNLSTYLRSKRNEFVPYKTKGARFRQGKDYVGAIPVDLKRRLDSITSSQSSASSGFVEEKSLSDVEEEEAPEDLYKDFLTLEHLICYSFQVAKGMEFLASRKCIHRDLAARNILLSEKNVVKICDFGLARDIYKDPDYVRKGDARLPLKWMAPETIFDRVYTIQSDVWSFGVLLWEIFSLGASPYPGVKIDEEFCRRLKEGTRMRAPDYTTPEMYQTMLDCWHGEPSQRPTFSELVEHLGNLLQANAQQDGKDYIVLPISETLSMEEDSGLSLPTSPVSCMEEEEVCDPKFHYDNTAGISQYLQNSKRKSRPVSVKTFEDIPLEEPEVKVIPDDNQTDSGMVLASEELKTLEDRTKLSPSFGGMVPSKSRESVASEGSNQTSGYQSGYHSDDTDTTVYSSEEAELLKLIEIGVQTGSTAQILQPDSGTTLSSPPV

Structure (SMILES) | IC50 [1] [µM] | IC50 (786-0) [µM] | IC50 (A498 [3]) [µM] | other results
O=C(Nc1ccc([N+](=O)[O-])cc1O)Nc1ccccc1Br | – | 100 | 70 | –
CCN(CC)CCNC(=O)c1c(C)[nH]c(/C=C2\C(=O)Nc3ccc(F)cc32)c1C [SUNITINIB] | – | – | – | IC50 (A498 [2]): 1.25 µM
CC1=C(C)C(=O)O[C@@H]([C@](C)(O)[C@]2(O)CC[C@@]3(O)[C@@H]4C[C@H]5O[C@]56CC=CC(=O)[C@]6(C)[C@H]4CC[C@]23C)C1 [WITHANOLIDE E] | – | – | – | IC50 (ACHN): 1.4 µM
Cc1ccc(/C=N/n2c(-c3cc4ccccc4[nH]3)n[nH]c2=S)cc1 | 0.034 | – | – | –
O=C(Nc1ccc(Cl)cc1)Nc1nc2ccccc2[nH]1 | – | 20 | 9 | –
CC(=O)OC[C@]12CC[C@H]3[C@@H](C[C@H]4O[C@]45CC=CC(=O)[C@]35C)[C@]1(O)CC[C@@]2(O)[C@@](C)(O)[C@H]1CC(C)=C(C)C(=O)O1 | – | – | – | IC50 (ACHN): 0.117 µM
O=C(Nc1cccc(Cl)c1)Nc1nc2ccc([N+](=O)[O-])cc2s1 | – | 2 | 2.5 | –

The next lines start with results.

IC50 [1] [µM] | IC50 (786-0) [µM] | Structure (SMILES) | IC50 (A498 [3]) [µM] | other results
0.077 | – | CCOC(=O)/C(=N\Nc1ccccc1)Sc1nnc(-c2cc3ccccc3[nH]2)n1/N=C/c1ccc(OC)cc1 | – | IC50 (CAKI-1): 8.46 µM; IC50 (A498 [2]): 0.64 µM
– | > 25 | O=C(Nc1ccccc1)Nc1nc2ccccc2o1 | > 25 | –
0.075 | – | CC(=O)/C(=N\Nc1ccccc1)Sc1nnc(-c2cc3ccccc3[nH]2)n1/N=C/c1ccc(C)cc1 | – | IC50 (CAKI-1): 3.23 µM; IC50 (A498 [2]): 2.05 µM
0.064 | – | COc1ccc(/C=N/n2c(-c3cc4ccccc4[nH]3)n[nH]c2=S)cc1 | – | –

— ChEMBL document CHEMBL5512612, “Novel small molecule inhibitors targeting renal cell carcinoma: Status, challenges, future directions” (Eur J Med Chem, 2024)
